The text below walks through data of ChEMBL document CHEMBL1137047, “Induction of G2/M cell cycle arrest and apoptosis by a benz[f]indole-4,9-dione analog in cultured human lung (A549) cancer cells” (Bioorg Med Chem Lett, 2004).

One may read the IC50 as the point on the concentration scale where inhibition reaches its midpoint. Low values mean inhibition by little substance, high ones a need for much substance.

What all share (format): functional, cell-based
Conditions in all cases: Homo sapiens

The subject of one assay is A549. Nature of the assay: Inhibitory activity against growth of cultured A-549 cell line.
The next assay deals with Col2. As to the kind of experiment: inhibitory activity against growth of cultured Col2 cell line.
The next assay deals with SNU-638. Nature of the assay: inhibitory activity against growth of cultured SNU-638 cell line.

Consider `CCOC(=O)c1c2c(n(C)c1N)C(=O)c1ccccc1C2=O`, for which the IC50 in the assay on A549 amounted to 630 nM; with Col2, 340 nM; in the assay on SNU-638 it was 1680 nM.
